From patent US10905704B2, “Agents and methods using thereof for the prevention and treatment of stem cell muscle disorders” (ECOLE POLYTECHNIQUE FEDERALE DE LAUSANNE (EPFL), priority 2015, dated 2021)

Legend:
MuSCs [1] = experiment: MuSCs transplantation from NR-treated aged donors into Mdx mice; assay type: in vivo; details: MuSCs from NR-treated aged donors vs controls, Mdx recipients, 4 weeks
Procedure: MuSCs transplantation. 5,000-8,000 double-sorted MuSCs isolated from NR or normal chow diet C57B/6J mice were resuspended in 10 μl of F10 media with 20% FBS and injected directly into cardiotoxin (CTX) pre-injured tibialis anterior (TA) muscle of Mdx mice 24hrs after the injury. The CTX pre-injury was performed as described above. Recipient mice were sacrificed 4 weeks after transplantation, TA muscle were harvested and prepared for cryosection.
Histology. TA muscles were harvested from anaesthetized mice and immediately frozen in Tissue-TEK® OCT compound (PST). 8-μm cryosections were collected and fixed with 4% paraformaldehyde, which are either stained with haematoxylin/eosin (HE) or antibodies. For immunostainings, heat activated antigen retrieval was performed in pH 6.0 citrate buffer for 10 min at 65° C. After washing with PBS-0.1% tween 20 (PBST), the sections were blocked with 10% affinipure Fab goat anti mouse IgG (Jackson Immunoresearch) in PBST for 60 min and PBST containing 2% BSA and 5% goat serum for 30 min at room temperature. Primary antibodies were then applied over night at 4° C. The following antibodies were used: anti-eMHC (Developmental Studies Hybridoma Bank, DSHB, University of Iowa), anti-Pax7 (DSHB, University of Iowa), anti-Laminin (Sigma). Subsequently, the slides were washed in PBST and incubated with appropriate secondary antibodies and labeling dyes. […]

C2C12 myoblasts = experiment: Respirometry on C2C12 myoblasts (OCR, ECAR); assay type: cell-based, mouse; details: C2C12 cells, NR vs PBS for 6 hours, FIG. 4J
Procedure: Cell culture and treatments were prepared according to description of Example 3. C2C12 mouse myoblasts were grown in DMEM (4.5 g/1 glucose, Gibco) supplemented with 10% FBS and penicillin/streptomycin (1×, Gibco). Cell transformation with Phb (Santa Cruz) and Phb2 shRNA (Santa Cruz) were performed using jetPEI DNA transfection kit (Polyplus), according to manufacturer's instructions. Cells were treated with 1 mM NR or PBS for 6 hours before cell harvesting or fixation. Respirometry on C2C12 myoblasts. Basal and uncoupled oxygen consumption rates (OCRs) and the extracellular acidification rate (ECAR) was measured using the Seahorse extracellular flux bioanalyzer (XF96, Seahorse Bioscience Inc.). To uncouple mitochondria, 5 uM of FCCP was injected after a basal respiration measurement. All measurements were performed in triplicates and results were normalized to total protein amount (C2C12 cells), assessed using a Bradford kit (Bio-Rad).

primary MuSCs = experiment: Respirometry on MuSCs; assay type: cell-based, C57BL/6J mice; details: primary MuSCs isolated from NR-treated aged mice
Procedure: Respirometry on MuSCs. Basal and uncoupled oxygen consumption rates (OCRs) were measured using the Seahorse extracellular flux bioanalyzer (XF96, Seahorse Bioscience Inc.). To uncouple mitochondria, 5 uM of FCCP was injected after a basal respiration measurement. All measurements were performed in triplicates and results were normalized to total cell number seeded (primary MuSCs) assessed using a Bradford kit (Bio-Rad).

MuSCs [2] = experiment: MuSC numbers in NR-treated Mdx mice (FACS, PAX7 immunostaining); assay type: in vivo
Procedure: Animals. Young (1 month old) and aged (20-24 months old) C57BL/6JRj mice, purchased from Janvier Labs, and five weeks old male C57BL/10SnJ mice or C57BL/10ScSn-Dmdmdx/J, purchased from The Jackson Laboratory, were fed with pellets containing vehicle or NR (400 mg/kg/day) for 6-8 weeks. The pellets were prepared by mixing powdered chow diet (D12450B, Research Diets Inc.) with water or with NR dissolved in water. Pellets were dried under a laminar flow hood for 48 hours. All mice were housed in micro-isolator cages in a room illuminated from 7:00 am -7:00 pm with ad libitum access to diet and water.
FACS based muscle stem cell isolation. Gastrocnemius, soleus, quadriceps, and tibialis anterior muscles from both limbs were excised and transferred into PBS on ice. All muscles were trimmed, minced and digested with 0.1 mg/ml of type II collagenase (Sigma) in PBS for 15 min at 37° C. Samples were then centrifuged at 750 g for 5 min and further digested in 1 mg/ml of collagenase/dispase (Roche) for 30 mins at 37° C. Muscle slurries were sequentially filtered through 100, 70 and 40 μm cell strainers. […] Stained cells were analysed and sorted using the FACSAria II instrument (BD Biosciences). […]

MuSCs [3] = experiment: Senescence marker staining of MuSCs from Mdx mice (β-galactosidase, γH2AX, cleaved caspase-3); assay type: cell-based; details: for senescence by β-galactosidase staining: FIG. 6J
Procedure: β-galactosidase assay. MuSCs were sorted directly and cultured primary MuSCs were grown on 8 chamber slides (Thermo Scientific). Senescence-associated β-galactosidase activity was detected using the senescence β-galactosidase staining kit (Cell signaling), according to manufacturer's instructions. Cardiotoxin-induced muscle damage and Histology as described in Example 2. The following antibodies were used: anti-eMHC (Developmental Studies Hybridoma Bank, DSHB, University of Iowa), anti-Pax7 (DSHB, University of Iowa), anti-γH2AX […] (Millipore) and anti-activated-caspase3 (Cell signaling).

[4] = MuSCs of NR-treated Mdx mice, cultured three generations, FIG. 6K

For NC(=O)c1ccc[n+]([C@@H]2O[C@H](CO)[C@@H](O)[C@H]2O)c1 [NR, nicotinamide riboside], the “replenishment of MuSC compartment after transplantation” value (MuSCs [1]) was “more effectively replenished the MuSC compartment”, the “myogenesis of dystrophin-positive myofibers after transplantation” value (MuSCs [1]; FIG. 3N) was “stimulated myogenesis of dystrophin-positive myo fibers” and the “glycolysis (ECAR)” value (C2C12 myoblasts) was “reductions in glycolysis”. For the same compound, the “oxidative respiration (OCR)” value (C2C12 myoblasts) was “increases in oxidative respiration”, the oxidative respiration (primary MuSCs) was “trend in oxidative respiration was replicated” and the “increase of MuSC numbers in vivo” value (MuSCs [2]; Mdx mice, NR 400 mg/kg/day in diet, FACS, FIG. 6B-D) was roughly 1.8 fold. For the same compound, the “MuSC numbers by PAX7 immunostaining” value (MuSCs [2]; NR-treated Mdx mice, FIG. 6E) was “confirmed by PAX7 immunostaining”, the “senescence by β-galactosidase staining” value (MuSCs [3]; MuSCs from Mdx mice additionally treated with NR in vitro (6 hours)) was “further reduction in senescence” and the “senescence by β-galactosidase staining” value (MuSCs [3]; MuSCs isolated from NR-treated Mdx mice) was “less prone to senescence”. The “cleaved caspase-3 immunostaining” value (MuSCs [3]; [4]) was “attenuation” and the γH2AX immunostaining (MuSCs [3]; [4]) was “attenuation”.
